According to ChEMBL document CHEMBL5291721, “A preclinical secondary pharmacology resource illuminates target-adverse drug reaction associations of marketed drugs” (Nat Commun, 2023):

Target: T1, Muscarinic acetylcholine receptor M1 (Homo sapiens, UniProt P11229)
T1 sequence (P11229 whole entry): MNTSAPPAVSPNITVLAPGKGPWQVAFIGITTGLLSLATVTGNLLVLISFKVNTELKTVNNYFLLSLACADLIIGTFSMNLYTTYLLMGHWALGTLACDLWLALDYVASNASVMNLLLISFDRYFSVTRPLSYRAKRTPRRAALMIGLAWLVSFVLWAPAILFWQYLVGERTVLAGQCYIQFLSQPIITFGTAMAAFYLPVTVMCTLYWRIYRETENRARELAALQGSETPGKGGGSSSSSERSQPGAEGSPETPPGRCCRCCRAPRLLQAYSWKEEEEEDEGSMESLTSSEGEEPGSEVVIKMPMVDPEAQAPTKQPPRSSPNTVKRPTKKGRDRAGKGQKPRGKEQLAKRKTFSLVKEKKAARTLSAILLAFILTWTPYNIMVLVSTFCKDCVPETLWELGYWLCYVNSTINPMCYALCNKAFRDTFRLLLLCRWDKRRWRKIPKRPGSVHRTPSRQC
Note: assay procedure not described here.

Q: `CC(C)(O)CNc1nc(Nc2ccnc(C(F)(F)F)c2)nc(-c2cccc(C(F)(F)F)n2)n1` [ENASIDENIB] was tested. Which AC50 did it give?
A: > 30 µM

Q: How did the AC50 turn out when `C#C[C@]1(O)CC[C@H]2[C@@H]3CCC4=CC(=O)CC[C@@H]4[C@H]3C(=C)C[C@@]21CC` [ETONOGESTREL] was run?
A: > 30 µM

Q: `CN(CC1(C)CCCO1)S(=O)(=O)c1ccc(Cl)c(S(N)(=O)=O)c1` (stereo not drawn) [MEFRUSIDE] was tested. Which AC50 did it give?
A: > 30 µM

Q: How did the AC50 turn out when `CCOC(=O)c1c(C)cc2c(CO)n[nH]c(=O)c2c1C` [OXAGRELATE] was run?
A: > 30 µM

Q: Which AC50 does the source give for `FC(F)(F)c1ccc(CNc2ccc(Cc3c[nH]c4ncc(Cl)cc34)cn2)cn1` [PEXIDARTINIB] here?
A: 0.3 µM

Q: `CC[C@@]1(O)C(=O)OCc2c1cc1n(c2=O)Cc2cc3c([N+](=O)[O-])cccc3nc2-1` [RUBITECAN] was tested. Which AC50 did it give?
A: > 30 µM

Q: Which AC50 does the source give for `OC[C@H]1O[C@@](CO)(O[C@H]2O[C@H](CO)[C@@H](O)[C@H](O)[C@H]2O)[C@@H](O)[C@@H]1O` [SUCROSE] here?
A: > 30 µM

Target: Histamine H1 receptor (Homo sapiens, UniProt P35367)
Sequence (P35367 whole entry): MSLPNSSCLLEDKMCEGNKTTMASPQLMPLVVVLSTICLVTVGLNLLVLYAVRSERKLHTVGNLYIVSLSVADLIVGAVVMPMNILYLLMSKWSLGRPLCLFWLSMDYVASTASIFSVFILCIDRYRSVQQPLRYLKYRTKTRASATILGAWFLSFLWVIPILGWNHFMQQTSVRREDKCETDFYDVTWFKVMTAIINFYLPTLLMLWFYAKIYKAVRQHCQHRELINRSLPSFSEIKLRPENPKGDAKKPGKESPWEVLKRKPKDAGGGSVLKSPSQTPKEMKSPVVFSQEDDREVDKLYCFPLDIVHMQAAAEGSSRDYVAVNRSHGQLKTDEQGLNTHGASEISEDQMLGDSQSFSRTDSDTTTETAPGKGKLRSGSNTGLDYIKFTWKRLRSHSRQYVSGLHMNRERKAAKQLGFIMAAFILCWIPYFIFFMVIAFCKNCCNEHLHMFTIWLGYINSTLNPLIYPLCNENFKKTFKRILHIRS
Type: functional, cell-based

Q: For `OC[C@H]1O[C@@](CO)(O[C@H]2O[C@H](CO)[C@@H](O)[C@H](O)[C@H]2O)[C@@H](O)[C@@H]1O` [SUCROSE], which AC50 is on record?
A: > 30 µM
